According to PMC5007552, “The hVps34‐SGK3 pathway alleviates sustained PI3K/Akt inhibition by stimulating mTORC1 and tumour growth” (The EMBO Journal, 2016):

Tests used:
BT-474c cells = experiment: Cell growth in vitro (confluency, Incucyte ZOOM); type: cell-based, human
Protocol: (§1) Figure 8 Dual treatment with Akt and SGK inhibitors reduces tumour growth in BT‐474 xenograft model • BT‐474 cells were treated for the indicated times with 0.3 μM MK‐2206. The cell lysates were analysed by immunoblot using the indicated antibodies. • BT‐474c cells were treated with inhibitors as indicated either as monotherapy or in combination and cell confluency measured on the Incucyte ZOOM every 4 h for up to 4 weeks. • BT‐474 cells were injected subcutaneously into athymic Foxn1 ^nu nude mice. […] The tumour volume was measured twice a week. Tumour growth is represented as the fold change mean ± SEM. • All mice were weighed at the end of the treatments. […] Results are presented as a mean ± SD from three different samples. • Tumours were harvested at the end of the experiment, 4 h after the last dosage and subjected to immunohistochemical analysis using cleaved caspase‐3 antibody (clCasp3). Apoptotic cells were counted in 25 fields per condition (left panel) and quantified as clCasp3‐positive cells/field (right panel). The results are presented as mean ± SD number of cleaved caspase‐3 positive cells. Representative images are shown. Scale bar, 100 μm. • Tumours were harvested at the end of the experiment, 4 h after the last dosage and subjected to immunohistochemical analysis with the indicated antibodies. Representative images are shown. Scale bar, 100 μm. • Tumours were obtained the same way as in (G) and subjected to immunoblot analysis with the indicated antibodies. Six different tumours were analysed from each treatment group and each line represents one tumour sample. TEXT PRINTED IN THE PICTURE: (E) MK-2206: plasma conc.
SGK3 (upper panel) and S6K1 (middle panel) were immunoprecipitated and subjected to in vitro kinase assay by measuring phosphorylation of the Crosstide substrate peptide in the presence of 0.1 mM [γ‐^32P]ATP in a 30 min 30°C reaction. Kinase reactions are presented as means ± SD for triplicate reaction. Immunoprecipitates (IP) were also analysed by immunoblot with the indicated antibodies. […]

[1] = tested on: BT-474 human breast xenograft; experiment: BT-474 xenograft tumour growth in nude mice; type: in vivo; details: 24 days, monotherapy
Protocol: (§2) Figure 8 Dual treatment with Akt and SGK inhibitors reduces tumour growth in BT‐474 xenograft model • BT‐474 cells were treated for the indicated times with 0.3 μM MK‐2206. The cell lysates were analysed by immunoblot using the indicated antibodies. • BT‐474c cells were treated with inhibitors as indicated either as monotherapy or in combination and cell confluency measured on the Incucyte ZOOM every 4 h for up to 4 weeks. • BT‐474 cells were injected subcutaneously into athymic Foxn1 ^nu nude mice. […] The tumour volume was measured twice a week. Tumour growth is represented as the fold change mean ± SEM. • All mice were weighed at the end of the treatments. […] Apoptotic cells were counted in 25 fields per condition (left panel) and quantified as clCasp3‐positive cells/field (right panel). […] Six different tumours were analysed from each treatment group and each line represents one tumour sample. […]
(§3) Experiments involving mice were in accordance with Institutional Guidelines of Memorial Sloan Kettering Cancer Center (Protocol number 12‐10‐019). […] When tumours reached a volume of ~150 mm^3, mice were randomised, treated, and tumours were measured twice a week. Tumour volume was determined using the following formula: (length × width^2) ÷ 2. […]

[2] = Plasma concentration at end of xenograft study; type: in vivo, mice; details: 2–3 h after last dose on day 24, MK-2206 100 mg/kg, 14h 25 mg/kg p.o.
Protocol: as §1

BT-474 xenograft tumours = experiment: Immunohistochemical and immunoblot analysis of signalling markers in xenograft tumours; type: in vivo, mice; details: end of treatment, IHC and immunoblot
Protocol: as §2, §3

SGK3 = target: T1, SGK3 (Homo sapiens, UniProt Q96BR1); experiment: Immunoprecipitated endogenous SGK3 kinase activity (Crosstide) and SGK3 phosphorylation from treated cells; type: cell-based; set-up: we immunoprecipitated endogenous SGK3 and assessed protein kinase activity; endogenous in cells; host or cells: ZR-75-1; details: 1 h, ZR-75-1 cells
T1 sequence (Q96BR1 1-496): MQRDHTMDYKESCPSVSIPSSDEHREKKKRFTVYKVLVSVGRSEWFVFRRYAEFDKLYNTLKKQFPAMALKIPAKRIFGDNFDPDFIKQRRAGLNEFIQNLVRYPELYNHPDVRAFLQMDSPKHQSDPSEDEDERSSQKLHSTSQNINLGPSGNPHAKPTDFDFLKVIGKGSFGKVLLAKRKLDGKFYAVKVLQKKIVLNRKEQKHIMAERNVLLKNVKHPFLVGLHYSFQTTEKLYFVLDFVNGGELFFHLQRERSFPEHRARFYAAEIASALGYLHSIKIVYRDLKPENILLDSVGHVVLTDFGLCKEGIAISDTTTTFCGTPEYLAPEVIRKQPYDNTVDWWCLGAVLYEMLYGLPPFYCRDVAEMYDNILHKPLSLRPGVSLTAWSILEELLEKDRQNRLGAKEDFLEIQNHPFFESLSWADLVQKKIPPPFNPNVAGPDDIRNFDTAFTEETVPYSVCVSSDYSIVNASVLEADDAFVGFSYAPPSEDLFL
Protocol: Briefly, SGK3, Akt and S6K1 were immunoprecipitated from 1 mg ZR‐75‐1 cell lysate. Immunoprecipitates were washed in sequence with lysis buffer containing high salt concentration (500 mM NaCl), lysis buffer and Buffer A (50 mM Tris pH 7.5, 0.1 mM EGTA). Kinase activity was assessed by measuring [γ‐^32P]ATP incorporation into Crosstide substrate peptide [[…]]. The reactions were carried in 40 μl total volume containing 0.1 mM [γ‐^32P]ATP (400–1,000 cpm/pmol), 10 mM magnesium acetate and 30 μM Crosstide peptide. Reactions were terminated by adding 10 μl 0.1 M EDTA and spotting 40 μl of the resulting reaction mix on P81 paper, which were immediately immersed into 50 mM orthophosphoric acid. Papers were washed at least five times in 50 mM orthophosphoric acid, rinsed in acetone and air‐dried. Radioactivity was quantified by Cerenkov counting. One unit of enzyme activity was defined as amount of enzyme that catalyses incorporation of 1 nmol of [γ‐^32P]ATP into the substrate over 1 min.

Compound	cell growth when 14h is combined with Akt inhibitor (BT-474c cells; 3 μM 14h with 0.3 μM AZD5363 or MK-2206, from beginning or 12 days after)	anti-proliferative effect alone (BT-474c cells; 3 μM, 5–6 days)	anti-tumour effect ([1]; 25 mg/kg p.o. 5 times/week)	plasma conc. ([2]; dual treatment) [nM]	plasma conc. ([2]; mono treatment) [nM]	phosphorylation markers in tumour samples (Akt 473, PRAS40, NDRG1, S6) (BT-474 xenograft tumours)	reduction of SGK3 activity and phosphorylation (SGK3; 0.1 μM 14h)	SGK3 activity and phosphorylation (SGK3; 1 μM 14h)	time to reach confluency (BT-474c cells; 0.3 μM Akt inhibitor, long-term growth assay) [days]	inhibition of in vivo growth of BT-474 ([1]; 100 mg/kg p.o. 5 times/week)
Nc1n[nH]c2nc(-c3ccc(NS(=O)(=O)c4cc(Cl)ccc4Cl)cc3)cnc12 [14h]	further reduction in cell growth	little anti‐proliferative effect	No anti‐tumour effects	1390 ± 360	1770 ± 540	no major effect	~ 80%	undetectable	–	–
NC1(c2ccc(-c3nc4ccn5c(=O)[nH]nc5c4cc3-c3ccccc3)cc2)CCC1 [MK-2206]	–	–	–	2690 ± 250	2690 ± 530	ablated Akt 473 and PRAS40 phosphorylation	–	–	~20	~ 20%
